Laboratory results: article PMC11597202, “Novel Thiazole-Fused [4,5-g] or [5,4-g]Quinazolin-8-ones and Their Quinazoline Analogues: Synthesis and Biological Evaluation” (Pharmaceuticals, 2024)

Target: T1, Haspin (Homo sapiens, UniProt Q8TF76)
T1 construct: amino acids 470 to Histone H3 peptide (1-21): (Other) 798, recombinant; host or cells: bacteria
T1 sequence (Q8TF76 470-798): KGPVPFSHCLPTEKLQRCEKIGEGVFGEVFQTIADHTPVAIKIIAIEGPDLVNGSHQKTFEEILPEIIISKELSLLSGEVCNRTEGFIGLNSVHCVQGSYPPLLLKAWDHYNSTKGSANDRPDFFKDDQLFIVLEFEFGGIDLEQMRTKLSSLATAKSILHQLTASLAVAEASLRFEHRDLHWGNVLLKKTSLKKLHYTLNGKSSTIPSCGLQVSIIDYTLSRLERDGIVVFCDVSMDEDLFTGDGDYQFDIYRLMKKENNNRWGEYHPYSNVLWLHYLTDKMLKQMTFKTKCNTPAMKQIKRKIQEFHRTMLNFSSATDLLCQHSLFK
Assay: ADP-Glo kinase inhibition assay, Haspin
Format: biochemical
Details: percentage of maximum activity of the DMSO control, mean n = 2, 10 µM ATP, read-out: Residual activity Haspin; for remaining activity at 1 µM: 1 μM compound; for remaining activity at 10 µM: 10 μM compound
Protocol: Kinase enzymatic activities were assayed in 384-well plates using the ADP-Glo^TM assay kit (Promega, Madison, WI, USA) according to the recommendations of the manufacturer. This luminescent ADP detection assay was described by Zegzouti and co-workers and provides a homogeneous and high-throughput screening method to measure kinase activity by quantifying the amount of ADP produced during a kinase reaction. Briefly, the reactions were carried out in a final volume of 6 µL for 30 min at 30 °C in an appropriate kinase buffer (10 mM MgCl2, 1 mM EGTA, 1 mM DTT, 25 mM Tris-HCl pH 7.5, 50 µg/mL heparin), with peptide or protein as substrate in the presence of 10 µM ATP. Peptide substrates were obtained from ProteoGenix (Schiltigheim, France) or Sigma for Histone H1, Poly (L-glutamic acid–L-tyrosine) sodium salt, Casein and MBP. After that, 6 µL of ADP-Glo^TM Kinase Reagent was added to stop the kinase reaction. After an incubation time of 50 min at room temperature (rt), 12 µL of Kinase Detection Reagent was added for one hour at rt. The transmitted signal was measured using the Envision (PerkinElmer, Waltham, MA, USA) microplate luminometer and expressed as Relative Light Units (RLUs). Kinase activities are expressed as percentages of remaining kinase activities detected after treatment with 1 or 10 µM of the tested compounds. The maximum kinase activity was measured in the absence of inhibitor but with an equivalent dose of DMSO (solvent of the tested compounds).
3. Kinase inhibition assays
Kinase enzymatic activities were assayed in 384-well plates using the ADP-GloTM assay kit (Promega, Madison, WI) according to the recommendations of the manufacturer. This luminescent ADP detection assay was described by Zegzouti and co-workers and provides a homogeneous and high-throughput screening method to measure kinase activity by quantifying the amount of ADP produced during a kinase reaction. Briefly, the reactions were carried out in a final volume of 6 µl for 30 min at 30°C in appropriate kinase buffer (10 mM MgCl2, 1 mM EGTA, 1 mM DTT, 25 mM Tris-HCl pH 7.5, 50 µg/mL heparin), with peptide or protein as substrate in the presence of 10 µM ATP. Peptide substrates were obtained from ProteoGenix (Schiltigheim, France) or Sigma for Histone H1, Poly (L-glutamic acid – L-tyrosine) sodium salt, Casein and MBP. After that, 6 µL of ADP-GloTM Kinase Reagent was added to stop the kinase reaction. After an incubation time of 50 min at room temperature (rt), 12 µL of Kinase Detection Reagent was added for 1 h at rt. The transmitted signal was measured using the Envision (PerkinElmer, Waltham, MA) microplate luminometer and expressed in Relative Light Unit (RLU). Kinase activities are expressed in percentages of remaining kinase activities detected after treatment with 1 or 10 µM of the tested compounds. The maximal kinase activity is measured in the absence of inhibitor but with an equivalent dose of DMSO (solvent of the tested compounds).
Table. Human protein kinases tested in the panel: CDK9, HASPIN, PIM1, GSK3b, CK1ε, JAK3, CLK1 […]
Protein Kinase Enzyme Description Substrate1
(Family) (Working concentration)
CDK9/CyclinT Human, recombinant, expressed by Peptide:
(CMGC) baculovirus in Sf9 insect cells […]
CLK1 Human, recombinant, expressed by Peptide: […]
(CMGC) baculovirus in Sf9 insect cells (57.3µM)
DYRK1A Human, recombinant, expressed by Peptide: […]
(CMGC) baculovirus in Sf9 insect cells (10.7µM)
PIM1 Human proto-oncogene, recombinant, Peptide: […]
(CAMK) expressed in bacteria (630 µM)
GSK3 Human, recombinant, expressed by Peptide:
(CMGC) baculovirus in Sf9 insect cells […]pEDEEE 3
HASPIN Human, kinase domain, amino acids 470 to Histone H3 peptide (1-21):
(Other) 798, recombinant, expressed in bacteria […] (8µM)
CK1ε Human, recombinant, expressed by Peptide: […]pAYSITA 2
(CK1) baculovirus in Sf9 insect cells (170µM)
JAK3 Human, recombinant, expressed by Peptide: […]
(TK) baculovirus in Sf9 insect cells (94µM) […]

remaining activity at 1 µM [%] | remaining activity at 10 µM [%] | Compound
89 | 105 | COC(=N)c1nc2cc3c(=O)n(Cc4ccccc4)cnc3cc2s1 [Compound 6a, Methyl 7-benzyl-8-oxo-7,8-dihydrothiazolo[4,5-g]quinazoline-2-carbimidate]
95 | 82 | COC(=N)c1nc2cc3ncn(Cc4ccccc4)c(=O)c3cc2s1 [Compound 6b, Methyl 7-benzyl-8-oxo-7,8-dihydrothiazolo[5,4-g]quinazoline-2-carbimidate]
39 | 12 | COC(=N)c1nc2c(ccc3c(=O)n(Cc4ccccc4)cnc32)s1 [Compound 6c, Methyl 7-benzyl-6-oxo-6,7-dihydrothiazolo[5,4-h]quinazoline-2-carbimidate]
82 | 51 | COC(=N)c1nc2ccc3c(=O)n(Cc4ccccc4)cnc3c2s1 [Compound 6d, Methyl 7-benzyl-6-oxo-6,7-dihydrothiazolo[4,5-h]quinazoline-2-carbimidate]
83 | 66 | COC(=N)c1nc2cc3c(Nc4ccc(OC)cc4F)ncnc3cc2s1 [Compound 15a, Methyl 8-[(2-fluoro-4-methoxyphenyl)amino]thiazolo[4,5-g]quinazoline-2-carbimidate]
80 | 88 | COC(=N)c1nc2cc3ncnc(Nc4ccc(OC)cc4F)c3cc2s1 [Compound 15b, Methyl 8-[(2-fluoro-4-methoxyphenyl)amino]thiazolo[5,4-g]quinazoline-2-carbimidate]
60 | 45 | COC(=N)c1nc2ccc3ncn(Cc4ccccc4)c(=O)c3c2s1 [Compound I, methyl 8-benzyl-9-oxo-8,9-dihydrothiazolo[5,4-f]quinazoline-2-carbimidate, reference compound]

Compound | remaining activity at 1 µM [%] | remaining activity at 10 µM [%]
COC(=N)c1nc2ccc3ncnc(Nc4ccc(OC)cc4F)c3c2s1 [Compound II, methyl 9-[(2-fluoro-4-methoxyphenyl)amino]thiazolo[5,4-f]quinazoline-2-carbimidate, reference compound] | 31 | 8
